Assay results taken from PubChem BioAssay AID651650 (Sanford-Burnham Center for Chemical Genomics, 2012).
Active and inactive are the calls of the source.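 The calls were made as follows: active = mean IC50 below 20 µM in each of the two panels, so potent in both; inactive = the rest.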

Molecular target: Neuropilin-1 (Homo sapiens) (UniProt O14786)
Assay: NRP-1 b1b2 CendR peptide binding inhibitors, dose response, biochemical, FP and AlphaScreen panel (AID 651650)
Settings: NRP-1 b1b2 / RPARPAR peptide binding, FP or AlphaScreen
[1] = AlphaScreen, run 1, individual panel run IC50
[2] = FP, run 1, individual panel run IC50
[3] = FP, run 2, individual panel run IC50

Chain of Neuropilin-1 (Homo sapiens) (O14786 whole entry, looked up): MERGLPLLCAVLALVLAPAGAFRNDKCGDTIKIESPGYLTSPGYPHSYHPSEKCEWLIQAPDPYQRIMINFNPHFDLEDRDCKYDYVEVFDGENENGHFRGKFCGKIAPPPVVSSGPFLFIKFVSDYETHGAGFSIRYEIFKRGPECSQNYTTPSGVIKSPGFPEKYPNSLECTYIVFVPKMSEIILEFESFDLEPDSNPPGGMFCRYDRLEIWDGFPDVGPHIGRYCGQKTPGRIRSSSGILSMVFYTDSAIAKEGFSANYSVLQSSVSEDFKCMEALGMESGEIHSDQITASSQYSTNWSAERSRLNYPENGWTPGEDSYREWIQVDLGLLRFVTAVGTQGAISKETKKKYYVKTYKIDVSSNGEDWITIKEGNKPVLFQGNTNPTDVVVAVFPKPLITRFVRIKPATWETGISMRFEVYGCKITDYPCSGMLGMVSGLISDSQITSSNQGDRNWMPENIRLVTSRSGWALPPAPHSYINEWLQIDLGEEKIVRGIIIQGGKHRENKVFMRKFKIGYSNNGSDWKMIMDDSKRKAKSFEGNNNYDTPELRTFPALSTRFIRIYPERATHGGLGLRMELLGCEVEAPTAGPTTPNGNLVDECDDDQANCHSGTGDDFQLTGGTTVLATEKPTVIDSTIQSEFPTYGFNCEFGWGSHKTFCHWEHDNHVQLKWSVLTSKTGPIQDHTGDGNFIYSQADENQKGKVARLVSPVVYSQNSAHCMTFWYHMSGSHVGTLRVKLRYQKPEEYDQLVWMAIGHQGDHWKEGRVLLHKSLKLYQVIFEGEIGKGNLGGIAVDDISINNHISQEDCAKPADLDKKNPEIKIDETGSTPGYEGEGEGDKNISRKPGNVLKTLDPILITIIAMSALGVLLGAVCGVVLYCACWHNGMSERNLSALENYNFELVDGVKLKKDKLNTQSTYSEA

SMILES: O=C(OCn1nnc2ccccc2c1=O)c1ccc(Br)o1
- IC50 (AlphaScreen, mean of runs): > 100 µM (inactive)
- IC50 [1]: > 100 µM
- IC50 (FP, mean of runs): > 95 µM (inactive)
- IC50 [2]: > 95 µM
- IC50 [3]: > 95 µM

SMILES: CC(C)(C)C(=O)c1cnc(Nc2ccccc2)s1
- IC50 (AlphaScreen, mean of runs): > 100 µM (inactive)
- IC50 [1]: > 100 µM
- IC50 (FP, mean of runs): > 95 µM (inactive)
- IC50 [2]: > 95 µM
- IC50 [3]: > 95 µM

SMILES: Cc1ccsc1C(=O)N1CCCC(CO)(Cc2ccccc2F)C1 (stereo not given)
- IC50 (AlphaScreen, mean of runs): > 100 µM (inactive)
- IC50 [1]: > 100 µM
- IC50 (FP, mean of runs): > 95 µM (inactive)
- IC50 [2]: > 95 µM
- IC50 [3]: > 95 µM

SMILES: C[C@@H]1CC=C[C@H]2[C@H]1C(=O)N(Cc1ccccc1)[C@H]2c1ccc(/C=C/c2ccccc2)cc1F
- IC50 (AlphaScreen, mean of runs): > 100 µM (inactive)
- IC50 [1]: > 100 µM
- IC50 (FP, mean of runs): > 95 µM (inactive)
- IC50 [2]: > 95 µM
- IC50 [3]: > 95 µM

SMILES: CCC1=C(OC(=O)N(CC)CC)N2C(=O)OC(=NCCOC)[C@]2(Cc2ccccc2)[C@H]2C1=CC[C@H]1C(=O)N(CC(=O)OC)C(=O)[C@H]12
- IC50 (AlphaScreen, mean of runs): > 100 µM (inactive)
- IC50 [1]: > 100 µM
- IC50 (FP, mean of runs): > 95 µM (inactive)
- IC50 [2]: > 95 µM
- IC50 [3]: > 95 µM

SMILES: O=C(NCCCN1CCCCCC1)c1ccc(CS(=O)(=O)Cc2ccccc2F)o1
- IC50 (AlphaScreen, mean of runs): > 100 µM (inactive)
- IC50 [1]: > 100 µM
- IC50 (FP, mean of runs): > 95 µM (inactive)
- IC50 [2]: > 95 µM
- IC50 [3]: > 95 µM

SMILES: CC(Nc1nc(-c2ccc(F)cc2)cs1)c1nc2cc(C(F)(F)F)ccc2n1CCOCCO (stereo not given)
- IC50 (AlphaScreen, mean of runs): > 100 µM (inactive)
- IC50 [1]: > 100 µM
- IC50 (FP, mean of runs): > 95 µM (inactive)
- IC50 [2]: > 95 µM
- IC50 [3]: > 95 µM

SMILES: Cc1ccc2c(c1)C(c1ccncc1)=NNC(c1ccc(F)cc1)=N2
- IC50 (AlphaScreen, mean of runs): > 100 µM (inactive)
- IC50 [1]: > 100 µM
- IC50 (FP, mean of runs): > 95 µM (inactive)
- IC50 [2]: > 95 µM
- IC50 [3]: > 95 µM

SMILES: Clc1nc(-c2ccccn2)nc2scc(-c3ccccc3)c12
- IC50 (AlphaScreen, mean of runs): > 100 µM (inactive)
- IC50 [1]: > 100 µM
- IC50 (FP, mean of runs): > 95 µM (inactive)
- IC50 [2]: > 95 µM
- IC50 [3]: > 95 µM

SMILES: O=C(COc1ccc(Br)cc1CO)Nc1ccc(F)cc1
- IC50 (AlphaScreen, mean of runs): > 100 µM (inactive)
- IC50 [1]: > 100 µM
- IC50 (FP, mean of runs): > 95 µM (inactive)
- IC50 [2]: > 95 µM
- IC50 [3]: > 95 µM

SMILES: NNc1ncnc2c1cnn2-c1ccccc1
- IC50 (AlphaScreen, mean of runs): > 100 µM (inactive)
- IC50 [1]: > 100 µM
- IC50 (FP, mean of runs): > 95 µM (inactive)
- IC50 [2]: > 95 µM
- IC50 [3]: > 95 µM

SMILES: Cc1ccc(NC(=O)c2ccc3c(c2)OCCO3)cc1S(=O)(=O)Nc1cccc(Cl)c1
- IC50 (AlphaScreen, mean of runs): > 100 µM (inactive)
- IC50 [1]: > 100 µM
- IC50 (FP, mean of runs): > 95 µM (inactive)
- IC50 [2]: > 95 µM
- IC50 [3]: > 95 µM

SMILES: CCOC(=O)C1CCN(S(=O)(=O)c2ccc3c(c2)CCN3C(=O)C2CCC2)CC1
- IC50 (AlphaScreen, mean of runs): > 100 µM (inactive)
- IC50 [1]: > 100 µM
- IC50 (FP, mean of runs): > 95 µM (inactive)
- IC50 [2]: > 95 µM
- IC50 [3]: > 95 µM

SMILES: COc1ccc(C2CC(C(F)(F)F)n3nc(C(=O)O)c(Cl)c3N2)cc1OC (stereo not given)
- IC50 (AlphaScreen, mean of runs): > 100 µM (inactive)
- IC50 [1]: > 100 µM
- IC50 (FP, mean of runs): inactive
- IC50 [2]: 53.3 µM
- IC50 [3]: 61.7 µM

SMILES: NC(=O)C(c1ccc(Cl)cc1Cl)c1ncc(C(F)(F)F)cc1Cl (stereo not given)
- IC50 (AlphaScreen, mean of runs): > 100 µM (inactive)
- IC50 [1]: > 100 µM
- IC50 (FP, mean of runs): > 95 µM (inactive)
- IC50 [2]: > 95 µM
- IC50 [3]: > 95 µM

SMILES: CSCCC(NC(=O)c1ccc(Cl)cc1Cl)C(=O)NCC(c1cccs1)N(C)C (stereo not given)
- IC50 (AlphaScreen, mean of runs): > 100 µM (inactive)
- IC50 [1]: > 100 µM
- IC50 (FP, mean of runs): > 95 µM (inactive)
- IC50 [2]: > 95 µM
- IC50 [3]: > 95 µM

SMILES: OCC[C@H]1C[C@H](O)[C@@H](O)[C@]2(CCCCO2)O1
- IC50 (AlphaScreen, mean of runs): > 100 µM (inactive)
- IC50 [1]: > 100 µM
- IC50 (FP, mean of runs): > 95 µM (inactive)
- IC50 [2]: > 95 µM
- IC50 [3]: > 95 µM

SMILES: O=C(Cc1ccc(F)cc1)N1CCN=C1SCc1ccc([N+](=O)[O-])cc1
- IC50 (AlphaScreen, mean of runs): > 100 µM (inactive)
- IC50 [1]: > 100 µM
- IC50 (FP, mean of runs): > 95 µM (inactive)
- IC50 [2]: > 95 µM
- IC50 [3]: > 95 µM
